In ChEMBL document CHEMBL1201862, “PubChem BioAssay data set” (2004):
Where “and” joins values, the source holds several entries; their conditions need not be identical. Identical values can stand only once.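 1) Cells in 96-well plates. 2) Compound, 48 h, 5 concentrations. 3) Linear interpolation between surrounding doses. 4) Unreached endpoint = highest concentration. The concentration for 50% growth inhibition is given as GI50.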 Calls of active or inactive are those of the source. No stated cut-off is given here; in the data, active = GI50 up to about 1.1 µM and inactive = higher.

Tests used:
Experiment in all cases: DTP human tumour cell line panel, 48 h
A498 = test system: A498
CCRF-CEM = test system: CCRF-CEM
HCC 2998 = test system: HCC 2998
HT-29 = test system: HT-29
Hs-578T = test system: Hs-578T
LOX IMVI = test system: LOX IMVI
M14 = test system: M14
MDA-N = test system: MDA-N
MOLT-4 = test system: MOLT-4
OVCAR-4 = test system: OVCAR-4
OVCAR-5 = test system: OVCAR-5
SF-539 = test system: SF-539
SK-MEL-28 = test system: SK-MEL-28
SK-MEL-2 = test system: SK-MEL-2
SNB-19 = test system: SNB-19
UACC-257 = test system: UACC-257
NCI-H226 = test system: NCI-H226
SR = test system: SR
UO-31 = test system: UO-31
K562 = test system: K562

Row | Structure (SMILES) | GI50 (A498) | GI50 (CCRF-CEM) | GI50 (HCC 2998) | GI50 (HT-29) | GI50 (Hs-578T) | GI50 (LOX IMVI) | GI50 (M14) | GI50 (MDA-N) | GI50 (MOLT-4) | GI50 (OVCAR-4) | GI50 (OVCAR-5) | GI50 (SF-539) | GI50 (SK-MEL-28) | GI50 (SK-MEL-2) | GI50 (SNB-19) | GI50 (UACC-257) | GI50 (NCI-H226) | GI50 (SR) | GI50 (UO-31) | GI50 (K562)
1 | CCC1C(C#N)=C(N)OC2=C1C(=O)CC(C)(C)C2 (stereo unspecified) | > 100 µM (inactive) | > 100 µM (inactive) | > 100 µM (inactive) | > 100 µM (inactive) | > 100 µM (inactive) | > 100 µM (inactive) | > 100 µM (inactive) | > 100 µM (inactive) | > 100 µM (inactive) | > 100 µM (inactive) | > 100 µM (inactive) | > 100 µM (inactive) | > 100 µM (inactive) | > 100 µM (inactive) | > 100 µM (inactive) | 35.9 µM (inactive) | – | – | – | –
2 | CN1c2ccccc2C(=O)NC12CCN(Cc1ccccc1)CC2 | 57.1 µM (inactive) | 35.6 µM (inactive) | 83.6 µM (inactive) | 27.6 µM (inactive) | 36.7 µM (inactive) | 46 µM (inactive) | 33.4 µM (inactive) | – | 38.9 µM (inactive) | 80.2 µM (inactive) | > 100 µM (inactive) | 50.7 µM (inactive) | 73.8 µM (inactive) | – | 27.5 µM (inactive) | 59.6 µM (inactive) | 27.5 µM (inactive) | 33.3 µM (inactive) | 34.6 µM (inactive) | –
3 | O=c1oc2ccccc2cc1-c1cc2ccccn2c1 | > 100 µM (inactive) | > 100 µM (inactive) | – | > 100 µM (inactive) | > 100 µM (inactive) | > 100 µM (inactive) | > 100 µM (inactive) | > 100 µM (inactive) | > 100 µM (inactive) | > 100 µM (inactive) | > 100 µM (inactive) | – | > 100 µM (inactive) | > 100 µM (inactive) | > 100 µM (inactive) | > 100 µM (inactive) | > 100 µM (inactive) | – | > 100 µM (inactive) | > 100 µM (inactive)
4 | CSc1nc(C#N)c(N)n1C | > 100 µM (inactive) | > 100 µM (inactive) | – | – | > 100 µM (inactive) | > 100 µM (inactive) | > 100 µM (inactive) | > 100 µM (inactive) | > 100 µM (inactive) | > 100 µM (inactive) | > 100 µM (inactive) | > 100 µM (inactive) | > 100 µM (inactive) | > 100 µM (inactive) | > 100 µM (inactive) | > 100 µM (inactive) | > 100 µM (inactive) | > 100 µM (inactive) | > 100 µM (inactive) | > 100 µM (inactive)
5 | O=C1CCC(=O)N1CNc1ccc2c(c1)Sc1ccccc1O2 | 53 µM (inactive) | 29 µM (inactive) | – | 23.5 µM (inactive) | 44.7 µM (inactive) | 27.3 µM (inactive) | 27.2 µM (inactive) | 30.2 µM (inactive) | 61.7 µM (inactive) | 33.7 µM (inactive) | 43.9 µM (inactive) | 15.6 µM (inactive) | 87.3 µM (inactive) | 18.1 µM (inactive) | 67.3 µM (inactive) | 46.7 µM (inactive) | 20.4 µM (inactive) | – | 23.2 µM (inactive) | 49.8 µM (inactive)
6 | O=C(O)CSCC(=O)Nc1ccc2cccc3c2c1CC3 | > 100 µM (inactive) | > 100 µM (inactive) | > 100 µM (inactive) | > 100 µM (inactive) | > 100 µM (inactive) | > 100 µM (inactive) | > 100 µM (inactive) | > 100 µM (inactive) | > 100 µM (inactive) | > 100 µM (inactive) | > 100 µM (inactive) | > 100 µM (inactive) | > 100 µM (inactive) | > 100 µM (inactive) | > 100 µM (inactive) | > 100 µM (inactive) | – | – | > 100 µM (inactive) | > 100 µM (inactive)
7 | CC(=NNC(=S)Nc1ccccc1)c1cccc(C(C)=NNC(=S)Nc2ccccc2)n1 | 7.55 µM (inactive) | 1.74 µM (inactive) | 3.64 µM (inactive) | 2.34 µM (inactive) | > 37.8 µM (inactive) | 2.24 µM (inactive) | 1.97 µM (inactive) | 14.1 µM (inactive) | 2.29 µM (inactive) | 3.66 µM (inactive) | > 22 µM (inactive) | 1.47 µM (inactive) | > 100 µM (inactive) | 41.1 µM (inactive) | 19.3 µM (inactive) | 8.83 µM (inactive) | 1.06 µM (active) | – | 2.34 µM (inactive) | 3.04 µM (inactive)
8 | O=c1[nH]c2ccc(Cl)cc2o1 | > 100 µM (inactive) | > 100 µM (inactive) | – | > 100 µM (inactive) | > 100 µM (inactive) | > 100 µM (inactive) | > 100 µM (inactive) | > 100 µM (inactive) | > 100 µM (inactive) | > 100 µM (inactive) | > 100 µM (inactive) | > 100 µM (inactive) | – | – | > 100 µM (inactive) | > 100 µM (inactive) | > 100 µM (inactive) | > 100 µM (inactive) | > 100 µM (inactive) | > 100 µM (inactive)
9 | OC(c1cc2ccccc2[nH]1)C1(c2cccnc2)SCCCS1 (stereo unspecified) | 17.9 µM (inactive) | – | – | 33 µM (inactive) | 41.3 µM (inactive) | 79.4 µM (inactive) | 51.2 µM (inactive) | 52.2 µM (inactive) | 27.9 µM (inactive) | 48.8 µM (inactive) | 24.1 µM (inactive) | – | > 100 µM (inactive) | 19.1 µM (inactive) | > 100 µM (inactive) | 52 µM (inactive) | > 100 µM (inactive) | 41.8 µM (inactive) | 25.2 µM (inactive) | 27.2 µM (inactive)
10 | O=C1NC(=O)C(C(c2ccc(Cl)cc2)C2C(=O)NC(=O)NC2=O)C(=O)N1.c1ccncc1 | > 100 µM (inactive) | > 100 µM (inactive) | – | > 100 µM (inactive) | > 100 µM (inactive) | > 100 µM (inactive) | > 100 µM (inactive) | > 100 µM (inactive) | > 100 µM (inactive) | > 100 µM (inactive) | > 100 µM (inactive) | – | > 100 µM (inactive) | > 100 µM (inactive) | > 100 µM (inactive) | > 100 µM (inactive) | > 100 µM (inactive) | – | > 100 µM (inactive) | > 100 µM (inactive)
11 | CNCCCNc1c2ccccc2nc2cccc([N+](=O)[O-])c12 | 0.0029 µM (active) | 0.00986 µM (active) | 0.00445 µM (active) | 0.00337 µM (active) | 0.00299 µM (active) | 0.00604 µM (active) | 0.00433 µM (active) | 0.0016 µM (active) | 0.00243 µM (active) | 0.00174 µM (active) | 0.00459 µM (active) | 0.00634 µM (active) | 0.0109 µM (active) | 0.00332 µM (active) | 0.00769 µM (active) | 0.0189 µM (active) | 0.018 µM (active) | – | 0.00845 µM (active) | 0.00407 µM (active)
12 | O=C(O)C1=NN(c2ccc(S(=O)(=O)O)cc2)C2(C1)SCC(=O)N2c1nc2ccccc2s1 (stereo unspecified) | > 100 µM (inactive) | > 100 µM (inactive) | > 100 µM (inactive) | > 100 µM (inactive) | > 100 µM (inactive) | > 100 µM (inactive) | > 100 µM (inactive) | – | > 100 µM (inactive) | > 100 µM (inactive) | > 100 µM (inactive) | > 100 µM (inactive) | > 100 µM (inactive) | > 100 µM (inactive) | > 100 µM (inactive) | > 100 µM (inactive) | 5.3 µM (inactive) | > 100 µM (inactive) | > 100 µM (inactive) | > 100 µM (inactive)
13 | O=c1[nH]nc(Cc2ccccc2)n1/N=C/c1ccc(/C=N/n2c(Cc3ccccc3)n[nH]c2=O)cc1 | > 100 µM (inactive) | 23.8 µM (inactive) | – | > 100 µM (inactive) | > 100 µM (inactive) | > 100 µM (inactive) | > 100 µM (inactive) | > 100 µM (inactive) | 19.4 µM (inactive) | > 100 µM (inactive) | > 100 µM (inactive) | – | > 100 µM (inactive) | > 100 µM (inactive) | > 100 µM (inactive) | > 100 µM (inactive) | > 100 µM (inactive) | – | > 100 µM (inactive) | 20.2 µM (inactive)
14 | C=C(C)CCC(O)[C@](C)(O)[C@H]1[C@H](O)C[C@@]2(C)[C@@H]3CCc4c(cc(OC5OC(CO)C(O)C(O)C5O)c(O)c4C)C3(C)C(=O)C[C@]12C (stereo partly specified) | > 100 µM (inactive) | > 100 µM (inactive) | > 100 µM (inactive) | > 100 µM (inactive) | – | > 100 µM (inactive) | > 100 µM (inactive) | > 100 µM (inactive) | > 100 µM (inactive) | > 100 µM (inactive) | > 100 µM (inactive) | > 100 µM (inactive) | > 100 µM (inactive) | > 100 µM (inactive) | > 100 µM (inactive) | > 100 µM (inactive) | > 100 µM (inactive) | > 100 µM (inactive) | > 100 µM (inactive) | > 100 µM (inactive)
15 | c1ccc2[nH]c(-c3cscn3)nc2c1 [THIABENDAZOLE] | > 100 µM (inactive) | > 100 µM (inactive) | > 100 µM (inactive) | > 100 µM (inactive) and 77.1 µM (inactive) | > 100 µM (inactive) | > 100 µM (inactive) | > 100 µM (inactive) | 50.4 µM (inactive) | > 100 µM (inactive) | > 100 µM (inactive) | > 100 µM (inactive) | > 100 µM (inactive) | > 100 µM (inactive) | > 100 µM (inactive) | > 100 µM (inactive) | > 100 µM (inactive) | > 100 µM (inactive) | – | – | > 100 µM (inactive) and 83.6 µM (inactive)
